Data from PubChem BioAssay (NCI).
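1) Cells in 96-well plates. 2) Compound, 48 h, 5 concentrations. 3) Linear interpolation between surrounding doses. 4) Unreached endpoint = highest concentration. TGI marks complete inhibition of growth.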

Columns and labels:
Assay in all cases: DTP human tumour cell line panel, 48 h
[1] = test system: 786-0 renal
[2] = test system: A498 renal
[3] = test system: A549 NSCLC
[4] = test system: ACHN renal
[5] = test system: CAKI-1 renal
[6] = test system: CCRF-CEM leukemia
[7] = test system: COLO 205 colon
[8] = test system: DLD-1 colon
[9] = test system: DMS 114 small cell lung
[10] = test system: DMS 273 small cell lung
[11] = test system: EKVX NSCLC
[12] = test system: HCC-2998 colon
[13] = test system: HCT-116 colon
[14] = test system: HCT-15 colon
[15] = test system: HOP-18 NSCLC
[16] = test system: HOP-62 NSCLC
[17] = test system: HT29 colon
[18] = test system: IGROV1 ovarian
[19] = test system: K-562 leukemia
[20] = test system: KM12 colon
[21] = test system: KM20L2 colon
[22] = test system: LOX IMVI melanoma
[23] = test system: LXFL 529 NSCLC
[24] = test system: M14 melanoma
[25] = test system: M19-MEL melanoma
[26] = test system: MALME-3M melanoma
[27] = test system: MOLT-4 leukemia
[28] = test system: NCI-H226 lung
[29] = test system: NCI-H23 lung
[30] = test system: NCI-H460 lung
[31] = test system: NCI-H522 lung
[32] = test system: OVCAR-3 ovarian
[33] = test system: OVCAR-4 ovarian
[34] = test system: OVCAR-5 ovarian
[35] = test system: OVCAR-8 ovarian
[36] = test system: RPMI-8226 leukemia
[37] = test system: RXF 393 renal
[38] = test system: RXF-631 renal
[39] = test system: SF-268 CNS
[40] = test system: SF-295 CNS
[41] = test system: SF-539 CNS
[42] = test system: SK-MEL-2 melanoma
[43] = test system: SK-MEL-28 melanoma
[44] = test system: SK-MEL-5 melanoma
[45] = test system: SK-OV-3 ovarian
[46] = test system: SN12C renal
[47] = test system: SNB-19 CNS
[48] = test system: SNB-75 CNS
[49] = test system: SNB-78 CNS
[50] = test system: SR leukemia
[51] = test system: SW-620 colon
[52] = test system: TK-10 renal
[53] = test system: U251 CNS
[54] = test system: UACC-257 melanoma
[55] = test system: UACC-62 melanoma
[56] = test system: UO-31 renal
[57] = test system: HL-60(TB) leukemia
[58] = test system: HOP-92 NSCLC

CN1C(=O)N(C)C2(O)c3ccccc3C(=O)C12O (stereo unspecified)
TGI [1]: > 100 µM
TGI [2]: > 100 µM
TGI [3]: > 100 µM
TGI [4]: > 100 µM
TGI [5]: > 100 µM
TGI [6]: > 100 µM
TGI [7]: > 100 µM
TGI [8]: > 100 µM
TGI [9]: > 100 µM
TGI [10]: > 100 µM
TGI [11]: > 100 µM
TGI [12]: > 100 µM
TGI [13]: > 100 µM
TGI [14]: > 100 µM
TGI [15]: > 100 µM
TGI [16]: > 100 µM
TGI [17]: > 100 µM
TGI [18]: > 100 µM
TGI [19]: > 100 µM
TGI [20]: > 100 µM
TGI [21]: > 100 µM
TGI [22]: > 100 µM
TGI [23]: > 100 µM
TGI [24]: > 100 µM
TGI [25]: > 100 µM
TGI [26]: > 100 µM
TGI [27]: > 100 µM
TGI [28]: > 100 µM
TGI [29]: > 100 µM
TGI [30]: > 100 µM
TGI [31]: > 100 µM
TGI [32]: > 100 µM
TGI [33]: > 100 µM
TGI [34]: > 100 µM
TGI [35]: > 100 µM
TGI [36]: > 100 µM
TGI [37]: > 100 µM
TGI [38]: > 100 µM
TGI [39]: > 100 µM
TGI [40]: > 100 µM
TGI [41]: > 100 µM
TGI [42]: > 100 µM
TGI [43]: > 100 µM
TGI [44]: > 100 µM
TGI [45]: > 100 µM
TGI [46]: > 100 µM
TGI [47]: > 100 µM
TGI [48]: > 100 µM
TGI [49]: > 100 µM
TGI [50]: > 100 µM
TGI [51]: > 100 µM
TGI [52]: > 100 µM
TGI [53]: > 100 µM
TGI [54]: > 100 µM
TGI [55]: > 100 µM
TGI [56]: > 100 µM

COc1ccc(/C=C/C(=O)c2sc(Nc3ccc([N+](=O)[O-])cc3)nc2C)cc1
TGI [1]: > 100 µM
TGI [2]: > 100 µM
TGI [3]: > 100 µM
TGI [4]: > 100 µM
TGI [5]: > 100 µM
TGI [6]: 82 µM
TGI [7]: > 100 µM
TGI [8]: > 100 µM
TGI [9]: > 100 µM
TGI [10]: > 100 µM
TGI [11]: > 100 µM
TGI [12]: 83.5 µM
TGI [14]: > 100 µM
TGI [57]: 67.6 µM
TGI [15]: > 100 µM
TGI [16]: > 100 µM
TGI [58]: 81.5 µM
TGI [18]: > 100 µM
TGI [19]: 93.6 µM
TGI [20]: > 100 µM
TGI [21]: > 100 µM
TGI [22]: > 100 µM
TGI [25]: > 100 µM
TGI [26]: > 100 µM
TGI [27]: 50.7 µM
TGI [29]: 85 µM
TGI [30]: > 100 µM
TGI [31]: 51.1 µM
TGI [32]: 89.4 µM
TGI [34]: > 100 µM
TGI [35]: > 100 µM
TGI [36]: 47.9 µM
TGI [37]: 87.9 µM
TGI [38]: > 100 µM
TGI [39]: > 100 µM
TGI [40]: 81.5 µM
TGI [41]: > 100 µM
TGI [42]: 48.6 µM
TGI [43]: > 100 µM
TGI [44]: 46.8 µM
TGI [45]: > 100 µM
TGI [46]: > 100 µM
TGI [47]: > 100 µM
TGI [48]: > 100 µM
TGI [49]: > 100 µM
TGI [51]: > 100 µM
TGI [52]: > 100 µM
TGI [53]: > 100 µM
TGI [55]: > 100 µM
TGI [56]: 91.9 µM
